Data on 1 compound can be found in patent US9469616B2, “Cyclic compounds and methods of making and using the same” (Cellceutix Corporation, priority 2011, dated 2016).

One assay concerns E. coli (25922). Briefly: MIC assay (Table 1). The format is cell-based. The settings on record: Escherichia coli, isolate 25922.
Another assay relates to S. aureus (27660). Briefly: MIC assay (Table 1). It is filed as cell-based. The settings on record: Staphylococcus aureus, isolate 27660.
For a further assay, the system named is E. faecalis (29212). In words: MIC assay (Table 1). The format is cell-based. As to conditions: Enterococcus faecalis, isolate 29212. How it is done: (§1) The compounds are screened for antimicrobial activity against a number of clinically relevant pathogens. Minimum Inhibitory Concentrations (MIC) of each of the compounds are determined using standard procedures for clinical ocular isolates of Ciprofloxacin Susceptible (CS) S. aureus (CSSA), Ciprofloxacin Resistant (CR) S. aureus (CRSA), CS S. epidermidis (CSSE), CR S. epidermidis (CRSE), St. pneumoniae (SP), St. viridans group (SV), Moraxella Species (MS) (including Moraxella catarrhalis), H. influenzae (HI), P. aeruginosa (PA), Serratia marcescens (SM), S. aureus fluoroquinolone-susceptible, S. aureus fluoroquinolone-resistant, S. epidermidis (Coagulase-negative Staphylococcus) fluoroquinolone-susceptible, S. epidermidis (Coagulase-negative Staphylococcus) fluoroquinolone-resistant, and Serratia marcescens.
(§2) On the day of testing, a 640 μg/m (1280 μg/m for Serratia marcescens and Pseudomonas aeruginosa) concentration is prepared from a 1% stock solution in 0.01% acetic acid, 0.2% BSA in polypropylene tubes.
(§3) Ten μl of diluted 10× test agents is added to each well of one row of the 96 well polypropylene plates from column 2 to column 12 (column 1 is a control for bacteria alone, with no peptide). […] The same peptide is in each of the 8 rows. One plate contains dilutions of one test agent and 8 bacterial isolates.
(§4) Ninety μl of the bacterial suspensions is dispensed in each well from column 1 to column 12. Each bacterial isolate is placed in one row of a 96 well polypropylene plate containing the test agents. The plates are placed on shaker at 15 minutes at room temperature, and then incubated at 37° C. overnight. MICs are determined visually as the lowest concentration of drug that inhibits visible bacterial growth.
(§5) Data is expressed as MIC50 in μg/ml. The bacterial isolates were as follows: E. coli (25922); S. aureus (27660); E. faecalis (29212); P. aeruginosa (10145); and K. pneumoniae (13883).

For the next assay, the system named is K. pneumoniae (13883). Briefly: MIC assay (Table 1). It is filed as cell-based. The settings on record: Klebsiella pneumoniae, isolate 13883, read-out: MIC50 K. Pnuemnoiae. How it is done:
as §1, §2, §3, §4, §5

A further assay concerns P. aeruginosa (10145). Briefly: MIC assay (Table 1). The format is cell-based. The settings on record: Pseudomonas aeruginosa, isolate 10145.
Another assay relates to NIH/3T3 cells. In words: Cytotoxicity colorimetric assay. It is filed as cell-based. The settings on record: Mus musculus, NIH3T3, 1 h, one hour incubation in serum-free media. How it is done: Cytotoxicity of the compounds are evaluated in a colorimetric assay using a transformed human liver cell line (HepG2, HB-8065) and an embryonic mouse cell line (NIH/3T3 cells, CRL-1658). This assay measures the bioreduction of a novel tetrazolium compound to a soluble formazan product by viable cells. HepG2 cells are seeded in 96 well plates at 2×10^4 cells/well in MEM medium with 10% fetal bovine serum (FBS) 24 hours prior to use. NIH/3T3 cells are seeded in 96 well plates at 2×10^4 cells/well in DMEM medium with 10% bovine calf serum (BCS) 24 hours prior to use. Cell monolayers are rinsed in serum-free media and incubated for one hour with a Compound in serum-free media. After incubation, the media is replaced with serum supplemented media and live cells are measured using the Cell Titer 96 Aqueous […] Assay kit (Promega, Madison, Wis.). EC50 values are determined using a four parameter logistic equation: Y=Bottom+(Top−Bottom)/(1+10^((Log EC50−X)*HillSlope)). […] Data is expressed as EC50 in μg/ml. Cytotoxicity is evaluated in a colorimetric assay using a transformed human liver cell line (HepG2, HB-8065) and an embryonic mouse cell line (NIH/3T3 cells, CRL-1658). This assay measures the bioreduction of a novel tetrazolium compound to a soluble formazan product by viable cells. HepG2 cells are seeded in 96 well plates at 3×10^4 cells/well in MEM medium with 10% fetal bovine serum (FBS) 24 hours prior to use. NIH/3T3 cells are seeded in 96 well plates at 2×10^4 cells/well in DMEM medium with 10% bovine calf serum (BCS) 24 hours prior to use. Cell monolayers are rinsed in serum-free media and incubated for one hour with test agent in serum-free media. After incubation, the media is replaced with serum supplemented media and live cells are measured using the Cell Titer 96 Aqueous […] Assay kit (Promega, Madison, Wis.). EC50 values are determined using a four parameter logistic equation: Y=Bottom+(Top−Bottom)/(1+10^((Log EC50−X)*HillSlope)).

The test system of a further assay is RAW 264.7 cells. In words: Cytokine production in RAW 264.7 cells (ELISA). It is filed as cell-based, murine. (In general: In an ELISA, binding on a coated surface is turned into a signal by an enzyme label.)

SMILES strings stand for the structures. Converted amounts (≈) assume the structure as drawn.

As usually defined, the MIC50 is the lowest concentration that inhibits either 50% of growth or 50% of the strains tested, depending on the study. One may read the EC50 as the midpoint of the concentration-response curve.

Turning to `NCCCOc1cc(-c2ccc3ccc(-c4cc(OCCCN)c(OCCCN)c(OCCCN)c4)cc3c2)cc(OCCCN)c1OCCCN` [Compound 116], the MIC50 with E. coli (25922) amounted to 3.13 µg/mL (≈ 4.35 µM); in the assay with S. aureus (27660), 3.13 µg/mL (≈ 4.35 µM); against E. faecalis (29212) it was 25 µg/mL (≈ 34.8 µM); in the assay on K. pneumoniae (13883), 25 µg/mL (≈ 34.8 µM); against P. aeruginosa (10145), 25 µg/mL (≈ 34.8 µM). In the assay on NIH/3T3 cells, this compound yielded a concentration giving a half-maximal response (EC50) of 165 µg/mL (≈ 230 µM). Besides, the “LPS-induced TNF production” value with RAW 264.7 cells (5.0 μg/mL preincubation 1 hour, LPS 100 ng/mL 18 hours, FIG. 1B) is “increased”. The “LPS-induced IL-6 production” value with RAW 264.7 cells (5.0 μg/mL preincubation 1 hour, LPS 100 ng/mL 18 hours, FIG. 1C) is “increased”. Besides, the “LPS-induced IL-10 production” value in the assay on RAW 264.7 cells (5.0 μg/mL preincubation 1 hour, LPS 100 ng/mL 18 hours, FIG. 1D) is reported as “inhibited the production of the anti-inflammatory cytokine IL 10 to background levels”. Moreover, in the assay with RAW 264.7 cells (5.0 μg/mL, without LPS, FIG. 1A), the TNF production entry is on record as “induced TNF production”. Further, the “LPS-induced TNF production with externally added rIL-10” value with RAW 264.7 cells (preincubated with mouse rIL-10 50 ng/mL, 5.0 μg/mL compound, LPS 100 ng/mL, FIG. 2) is on record as “abrogation of Compound 116's capacity to enhance TNF production”. The “TNF level with externally added rIL-10” value in the assay with RAW 264.7 cells (preincubated with mouse rIL-10 50 ng/mL, 5.0 μg/mL compound, without LPS, FIG. 2) is on record as “only a slight decrease in the overall TNF level”.
